According to US12509530B2, “Single domain antibodies directed against intracellular antigens” (Singh Molecular Medicine, LLC, priority 2015, dated 2025):
“And” between values parts separate entries of the source, which are not always exact repeats. Equal entries are not always repeated. Numbered stars: 1 amine (or outer) side, 2 acyl side, 3 side chain; on linkers, the order of the positions; unused ones are H or OH. Bridge positions count the residues as written; N and C are the ends. Square brackets hold non-standard residues; d marks the D form. Peptide text beside a SMILES is read from it. I, II: the chains in the order shown. Actinocin(9to1) = Cc1c2oc3c(C)ccc(C(=O)[*:1])c3nc-2c(C(=O)[*:2])c(N)c1=O; NMeV = CN[C@H](C(=O)O)C(C)C; Sar = CNCC(=O)O

Columns and labels:
PANC-1 cells = test: MTT proliferation assay, PANC-1; settings: Homo sapiens, PANC-1, 72 h
Human recombinant TNF-α = molecular target: T1, Human recombinant TNF-α (Homo sapiens, UniProt P01375); test: Inhibition of TNF-α cytotoxicity in L929 cells (MTS/PMS); format: cell-based, mouse
T1 construct: purchased Sigma-Aldrich
T1 sequence (P01375 77-233 limits assumed): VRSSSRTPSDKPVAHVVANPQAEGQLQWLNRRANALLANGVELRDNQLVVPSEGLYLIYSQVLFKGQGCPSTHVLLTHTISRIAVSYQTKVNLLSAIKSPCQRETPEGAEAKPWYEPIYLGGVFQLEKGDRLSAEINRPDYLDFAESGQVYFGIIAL

MDA-MB-231 cells = test: MTT proliferation assay, MDA-MB-231; format: cell-based, human; settings: test article cloudy; cells lost normal morphology
SJSA-1 xenograft [1] = test: SJSA-1 bone osteosarcoma subcutaneous xenograft model; settings: SBT-100 5.0 mg/kg BIDx14, Doxorubicin 7.0 mg/kg days 1, 8, 14, IP
SJSA-1 xenograft [2] = settings: mouse, in vivo
STAT3 = STAT3 reporter GloResponse SIE-luc2P/HEK293 assay, IL-6 induction; format: cell-based, human; settings: 24 and 48 hours treatment
[3] = molecular target: T2, active human TNF-α full length protein (Homo sapiens, UniProt P01375); test: TNF-α binding ELISA; settings: for detection in coated vs non-coated wells: 0.5 μg/mL coating antigen; for detection / binding to the TNF-α protein: Experiment 1
T2 construct: active human TNF-α full length protein; purchased Abcam
T2 sequence (P01375 77-233 limits assumed): as above
Procedure: In this Example, the binding of anti-TNF-α sdAbs to active human TNF-α full length protein was assessed using an enzyme linked immunosorbent assay (ELISA) format. Additionally, the feasibility of utilizing a secondary antibody targeted to the his tag portion of the sdAbs was assessed.
The test articles for this study were anti-TNF-α VHH62 (SEQ ID NO:47) sdAb, TNF-α VHH66 (SEQ ID NO:45) sdAb, and anti-TNF-α VHH69 (SEQ ID NO:46) sdAb (Experiment 1).
For the assays to assess the binding of the sdAbs to TNF-α protein (Experiment 1, 4 and 5), a standard sandwich ELISA format was utilized. […] Plates were incubated overnight at 2-8° C. After the incubation, plates were washed (3×) and blocked (3% Bovine Serum Albumin (BSA) in Phosphate Buffered Saline (PBS)) for at least one hour at room temperature.
After removal of the blocking buffer and washing (3×), samples were added to the appropriate wells of the ELISA plates and incubated at room temperature with shaking (150 rpm) for at least one hour. The secondary antibody (rabbit anti-llama biotinylated antibody at either a1:5,000 or 10,000 dilution) was then added to each well and incubated with shaking for at least one hour at room temperature.
After the incubation with secondary antibody, the plates were again washed (3×) and horseradish peroxidase (HRP) at either a 1:25,000 or 1:50,000 dilution was added to each well. Plates were incubated with shaking for at least one hour at room temperature. A final wash (3×) was performed followed by the addition of TMB (Tetramethylbenzidine) substrate. After a 20 to 25 minute incubation at room temperature, stop solution was added to halt the colorimetric reaction. The absorbance at 450 nm was measured on a VersaMax instrument utilizing SoftMax Pro GxP version 5.4 software from Molecular Devices (Sunnyvale, CA).
The final experiment performed was to confirm that the results from the ELISA testing were due to binding to the TNF-α protein and not non-specific binding of the sdAb. For this determination, a comparison was made between wells coated with 0.5 μg/mL of coating antigen and non-coated wells. […] This experiment confirms that the detection seen with the previous experiments was due to the specific binding of the VHH to the coating antigen and not due to non-specific binding.

Nc1ccn([C@@H]2O[C@H](CO)[C@@H](O)C2(F)F)c(=O)n1 [Gemcitabine]
inhibition at 0.313 µM (PANC-1 cells; read-out: % Inh, Gemcitabine Hydrochloride (Biovision #1759) 0.313 μM, 72 hours): 0% | inhibition at 0.625 µM (PANC-1 cells; read-out: % Inh, Gemcitabine Hydrochloride (Biovision #1759) 0.625 μM, 72 hours): 2% | inhibition at 5 µM (PANC-1 cells; read-out: % Inh, Gemcitabine Hydrochloride (Biovision #1759) 5 μM, 72 hours): 36% | inhibition at 10 µM (PANC-1 cells; read-out: % Inh, Gemcitabine Hydrochloride (Biovision #1759) 10 μM, 72 hours): 46%

TNFa
% Toxicity, Sample Replicate # (Human recombinant TNF-α; Assay 1 control, TNFa 0.5 μg/mL): 101.9% and 101.6% and 101.8% (3×) and 102.1% (4×) and 102.6% and 102.7% and 101.7%

Cc1c2oc3c(C)ccc(C(=O)N[C@@H]4C(=O)N[C@H](C(C)C)C(=O)N5CCC[C@H]5C(=O)N(C)CC(=O)N(C)[C@@H](C(C)C)C(=O)O[C@@H]4C)c3nc-2c(C(=O)N[C@@H]2C(=O)N[C@H](C(C)C)C(=O)N3CCC[C@H]3C(=O)N(C)CC(=O)N(C)[C@@H](C(C)C)C(=O)O[C@@H]2C)c(N)c1=O [Actinomycin D] (I: T[dV]P[Sar][NMeV] / II: T[dV]P[Sar][NMeV]; ester I:1-I:C, II:1-II:C; linker I:N-II:N via Actinocin(9to1))
% Toxicity, Sample Replicate # (Human recombinant TNF-α; Assay 1 control, Actinomycin D only (no TNFα)): 5.4% and 2.3% and 3.5% and 0% (8×) | % Toxicity, Sample Replicate # (Human recombinant TNF-α; Assay 2 control, Actinomycin D only (no TNFα)): 0%

MPT His Tag: anti-STAT3 VHH13 (SBT-100) preparation produced by Microprotein Technologies, His tagged
inhibition compared with the other SBT-100 preparations (MDA-MB-231 cells): greatest inhibition

COc1cccc2c1C(=O)c1c(O)c3c(c(O)c1C2=O)C[C@@](O)(C(=O)CO)C[C@@H]3O[C@H]1C[C@H](N)[C@H](O)[C@H](C)O1 [Doxorubicin, reference compound]
Tumor measurement, individual animals (SJSA-1 xenograft [1]; day 8 post implant): 0.00 mm^3 | Tumor measurement, Mean Abs (SJSA-1 xenograft [1]; day 13 post implant): 70.72 mm^3 | Tumor measurement, individual animals (SJSA-1 xenograft [1]; day 23 post implant): 116.85 mm^3 | number of surviving at the end of the study (SJSA-1 xenograft [2]; Hsd: Athymic Nude-Fox1nu): 2 | Are the survival curves sig different? (SJSA-1 xenograft [2]): Yes

CC(=O)c1cc2c(o1)C(=O)c1ccccc1C2=O [BB1608, napabucasin, reference compound]
effect on IL-6 induction of the reporter (STAT3): Inhibition of IL-6

B1: anti-TNF-α VHH62: anti-TNF-α sdAb, SEQ ID NO:47 (TNF_62, SEQ ID NO: 66) (protein)
VHH: QVQLVESGGGPVQAGETLRLSCTASGFTFAEADMGWYRQAPGHECELVSTITTEGITSEASSYYADSVRGRFTISRDNAKNMVYLQMNSLKPEDTAVYYCAPDPYAYSTYSDYCSWAQGTQGTLVTVSS
modifications: Camelid
detection in coated vs non-coated wells ([3]; 1 μg/mL sdAb): not detected in either coated or non-coated wells | detection / binding to the TNF-α protein ([3]; 1 μg/mL sdAb): little to no detection | OD values ([3]; Experiment 4, 10-fold serial dilutions, old and new batch): < 0.2 OD450 | OD450 Values, Non-Coated ([3]; non-coated wells (non-specific binding), 1 μg/mL sdAb): −0.001

B2: anti-TNF-α VHH69: anti-TNF-α sdAb, SEQ ID NO:46 (TNF_69, SEQ ID NO: 64) (protein)
VHH: EVQLVESGGGSVLAGGSLRLSCVASGFTSRYNYMAWFRQAPGKEREGVATIGTASGSADYYGSVKDRFTISQDNAKNTVYLQMNSLKPEDTAMYYCAARTYGTISLTPSDYRYWGQGTLVTVSS
modifications: Camelid
detection in coated vs non-coated wells ([3]; 1 μg/mL sdAb): detected in coated wells but not in non-coated wells | detection / binding to the TNF-α protein ([3]; 1 μg/mL sdAb): little to no detection | effect on IL-6 induction of the reporter (STAT3): enhancement of the IL-6 induction

B3: anti-STAT3 VHH14: anti-STAT3 single domain antibody, SEQ ID NO:4 (same sequence as STAT3_14, SEQ ID NO: 8) (protein)
VHH: QVQLVESGGGSVQAGGSLRLSCVASTYTGCMGWFRQAPGKEREGVAALSSRGFAGHYTDSVKGRFSISRDYVKNAVYLQMNTVKPEDAAMYYCAAREGWECGETWLDRTAGGHTYWGQGTLVTVSS
modifications: Camelid
effect on IL-6 induction of the reporter (STAT3): enhancement of the IL-6 induction
